Assay results from patent US10975068B2, “6-aminopyridin-3-yl thiazoles as modulators of RORγT” (Janssen Pharmaceutica NV, priority 2016, dated 2021).
Read-outs that look alike come from different tables or passages of the source.

What was measured:
[1] = molecular target: human RORγt ligand binding domain (RORγt LBD) (Homo sapiens (Human), UniProt P51449); assay: RORγt ThermoFluor® assay (thermal shift binding); conditions: read-out: ThermoFluor® Assay, Kd
In short: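 His-tagged human RORγt LBD (0.065 mg/mL) with 60 μM 1,8-ANS in 100 mM Hepes pH 7.0, 10 mM NaCl, 2.5 mM GSH, 0.002% Tween-20 was heated at 1 °C/min.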

full-length human RORγt = full-length human RORγt (Homo sapiens (Human), UniProt P51449); assay: RORγt (full-length human) reporter assay, Conditions B or C; format: cell-based; conditions: for RORγt (FL) Reporter Assay B or C, % inhibition (value marked *): marked *: footnote not given; for RORγt (FL) Reporter Assay B or C, % inhibition (value marked ***): marked ***: footnote not given; for inhibition at 1 µM: at 1 μM compound concentration; for inhibition at 1 µM / inhibition at 3 µM: read-out: RORγt (FL) Reporter Assay B or C, % inhibition; for inhibition at 3 µM: at 3 μM compound concentration
In short: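 HEK293T cells transiently co-transfected with GAL4-DBD–full-length human RORγt (nt 142-1635, NM_001001523.1) plus GAL4-firefly and CMV-Renilla luciferase reporters; compounds added 4-6 h post-transfection for 16-20 h in 1.3% FBS, 0.1% DMSO. Firefly signal normalized to DMSO and saturating reference compound, then to Renilla; IC50 from concentration plots.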

[2] = Conditions B or C, read-out: RORγt (FL) Reporter Assay B or C, IC50
[3] = read-out: RORγt (FL) Reporter Assay B or C, IC50

Sequence of human RORγt ligand binding domain (RORγt LBD) (P51449 other isoform, or with tags, fused parts or gaps): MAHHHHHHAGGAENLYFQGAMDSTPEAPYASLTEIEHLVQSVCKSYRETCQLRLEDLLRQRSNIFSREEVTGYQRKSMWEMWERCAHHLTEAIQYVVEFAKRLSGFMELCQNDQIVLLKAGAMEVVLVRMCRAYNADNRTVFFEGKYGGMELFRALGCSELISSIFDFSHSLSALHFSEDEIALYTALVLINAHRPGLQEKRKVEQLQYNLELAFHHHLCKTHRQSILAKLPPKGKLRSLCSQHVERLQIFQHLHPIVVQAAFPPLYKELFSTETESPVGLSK
Sequence of full-length human RORγt (P51449 other isoform, or with tags, fused parts or gaps): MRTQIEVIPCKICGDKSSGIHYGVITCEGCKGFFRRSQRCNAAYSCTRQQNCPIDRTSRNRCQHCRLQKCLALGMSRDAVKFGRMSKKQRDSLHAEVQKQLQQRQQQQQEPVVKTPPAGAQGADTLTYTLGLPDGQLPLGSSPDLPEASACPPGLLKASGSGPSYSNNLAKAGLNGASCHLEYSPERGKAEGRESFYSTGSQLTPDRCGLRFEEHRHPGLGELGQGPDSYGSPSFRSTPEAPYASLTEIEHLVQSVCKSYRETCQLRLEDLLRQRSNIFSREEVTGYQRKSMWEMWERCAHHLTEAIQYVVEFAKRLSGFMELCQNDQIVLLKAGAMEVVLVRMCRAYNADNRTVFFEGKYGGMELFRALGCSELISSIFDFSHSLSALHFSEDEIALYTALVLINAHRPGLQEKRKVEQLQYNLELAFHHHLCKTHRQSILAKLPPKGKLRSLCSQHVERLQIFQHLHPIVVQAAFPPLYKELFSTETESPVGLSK

`CC(C)(C)CNc1cc(C(F)(F)F)c(-c2sc(C(=O)NCC(C)(C)O)nc2C(=O)N2C3CCC2CC3)cn1` [Example 84, 4-((1s,4s)-7-Azabicyclo[2.2.1]heptane-7-carbonyl)-N-(2-hydroxy-2-methylpropyl)-5-(6-(neopentylamino)-4-(trifluoromethyl)pyridin-3-yl)thiazole-2-carboxamide] was tested, and the Kd [1] was 0.0012 µM, the “RORγt (FL) Reporter Assay B or C, % inhibition (value marked *)” value (“RORγt … % inhibition (value marked *)” below) (full-length human RORγt; Conditions B or C) was 136* % and the IC50 (full-length human RORγt; [2]) was 0.018 µM.

For `C[C@H]1CC(F)(F)CN1C(=O)c1nc(C(=O)NCC(C)(C)O)sc1-c1cnc(NC(C2CC2)C2CC2)cc1C(F)(F)F` [Example 138, (S)-5-(6-((Dicyclopropylmethyl)amino)-4-(trifluoromethyl)pyridin-3-yl)-4-(4,4-difluoro-2-methylpyrrolidine-1-carbonyl)-N-(2-hydroxy-2-methylpropyl)thiazole-2-carboxamide], the Kd [1] was 0.00062 µM, the “RORγt (FL) Reporter Assay B or C, % inhibition (value marked ***)” value (full-length human RORγt; Conditions B or C) was 100*** % and the IC50 (full-length human RORγt; [2]) was 0.012 µM.

`O=C(N[C@H]1COC[C@@H]1O)c1nc(C(=O)N2C3CCC2CC3)c(-c2cnc(N[C@@H](C3CC3)C(F)(F)F)cc2C(F)F)s1` [Example 417, 4-((1s,4s)-7-Azabicyclo[2.2.1]heptane-7-carbonyl)-5-[6-[[(1S)-1-cyclopropyl-2,2,2-trifluoro-ethyl]amino]-4-(difluoromethyl)-3-pyridyl]-N-[(3S,4R)-4-hydroxytetrahydrofuran-3-yl]thiazole-2-carboxamide] showed a Kd [1] of 0.0024 µM, an IC50 (full-length human RORγt; RORγt (FL) Reporter Assay B or C, IC50) of 0.028 µM and an inhibition at 1 µM (full-length human RORγt) of 94%.

For `C[C@H](Nc1cc(C(F)F)c(-c2sc(C(=O)NCC(C)(C)O)nc2C(=O)N2CCC[C@@H]2C)cn1)C1CC1` [Example 43, 5-(6-(((S)-1-Cyclopropylethyl)amino)-4-(difluoromethyl)pyridin-3-yl)-N-(2-hydroxy-2-methylpropyl)-4-((S)-2-methylpyrrolidine-1-carbonyl)thiazole-2-carboxamide], the Kd [1] was 0.0049 µM, the IC50 (full-length human RORγt; [2]) was 0.022 µM and the inhibition at 6 µM (full-length human RORγt; read-out: RORγt (FL) Reporter Assay B or C, % inhibition @ 6 μM, Conditions B or C, @ 6 μM) was 107%.

`CC[C@H](Nc1cc(C(F)F)c(-c2sc(C(=O)N[C@H]3C[C@H](O)C3)nc2C(=O)N2CCC[C@@H]2C)cn1)C(F)(F)F` [Example 233, 5-[4-(Difluoromethyl)-6-[[(1S)-1-(trifluoromethyl)propyl]amino]-3-pyridyl]-N-((1r,3S)-3-hydroxycyclobutyl)-4-[(2S)-2-methylpyrrolidine-1-carbonyl]thiazole-2-carboxamide] was tested, and the Kd [1] was 0.01 µM, the “RORγt … % inhibition (value marked *)” value (full-length human RORγt; Conditions B or C) was 124* % and the IC50 (full-length human RORγt; [2]) was 0.022 µM.

`C[C@H]1CCCN1C(=O)c1nc(C(=O)N[C@H]2C[C@H](O)C2)sc1-c1cnc(NC(C)(C)C)cc1C(F)F` [Example 400, 5-(6-(tert-Butylamino)-4-(difluoromethyl)pyridin-3-yl)-N-((1R,3S)-3-hydroxycyclobutyl)-4-((S)-2-methylpyrrolidine-1-carbonyl)thiazole-2-carboxamide] showed a Kd [1] of 0.013 µM, an inhibition at 3 µM (full-length human RORγt) of 84% and an IC50 (full-length human RORγt; [3]) of 0.056 µM.

`C[C@H]1CCCN1C(=O)c1nc(C(=O)N2CC[C@H](O)C2)sc1-c1cnc(NC(C)(C)C)cc1C(F)(F)F` [Example 350, [5-[6-(tert-Butylamino)-4-(trifluoromethyl)-3-pyridyl]-2-[(3S)-3-hydroxypyrrolidine-1-carbonyl]thiazol-4-yl]-[(2S)-2-methylpyrrolidin-1-yl]methanone] showed a Kd [1] of 0.0083 µM, an inhibition at 3 µM (full-length human RORγt) of 110% and an IC50 (full-length human RORγt; [3]) of 0.03 µM.

`CC[C@H](Nc1cc(C(F)F)c(-c2sc(C(=O)N[C@@H](C)C(C)(C)O)nc2C(=O)N2CCC[C@@H]2C)cn1)C(F)(F)F` [Example 272, 5-[4-(Difluoromethyl)-6-[[(1S)-1-(trifluoromethyl)propyl]amino]-3-pyridyl]-N-[(1S)-2-hydroxy-1,2-dimethyl-propyl]-4-[(2S)-2-methylpyrrolidine-1-carbonyl]thiazole-2-carboxamide] showed a Kd [1] of 0.0021 µM, an inhibition at 3 µM (full-length human RORγt) of 105% and an IC50 (full-length human RORγt; [3]) of 0.018 µM.

For `C[C@H]1CC(F)(F)CN1C(=O)c1nc(C(=O)NCC(C)(C)O)sc1-c1cnc(NC2(C)CCC2)cc1C(F)F` [Example 168], the Kd [1] was 0.0018 µM, the “RORγt … % inhibition (value marked *)” value (full-length human RORγt; Conditions B or C) was 106* % and the IC50 (full-length human RORγt; [2]) was 0.2 µM.

For `C[C@H]1CC(F)(F)CN1C(=O)c1nc(C(=O)NCC(C)(C)O)sc1-c1cnc(NC(C)(C)C)cc1C(F)(F)F` [Example 83, (S)-5-(6-(tert-Butylamino)-4-(trifluoromethyl)pyridin-3-yl)-4-(4,4-difluoro-2-methylpyrrolidine-1-carbonyl)-N-(2-hydroxy-2-methylpropyl)thiazole-2-carboxamide], the Kd [1] was 0.00055 µM, the “RORγt (FL) Reporter Assay B or C, % inhibition (value marked ***)” value (full-length human RORγt; Conditions B or C) was 110*** % and the IC50 (full-length human RORγt; [2]) was 0.0069 µM.

Work on `C[C@H]1CCCN1C(=O)c1nc(C(=O)N2CC[C@](C)(O)C2)sc1-c1cnc(NC(C)(C)C)cc1C(F)(F)F` (relative stereo) [Example 365, (5-(6-(tert-Butylamino)-4-(trifluoromethyl)pyridin-3-yl)-2-((S*)-3-hydroxy-3-methylpyrrolidine-1-carbonyl)thiazol-4-yl)((S)-2-methylpyrrolidin-1-yl)methanone] yielded a Kd [1] of 0.0081 µM, an inhibition at 1 µM (full-length human RORγt) of 92% and an IC50 (full-length human RORγt; [3]) of 0.052 µM.

`C[C@H]1CCCN1C(=O)c1nc(C(=O)NC(C)(C)CO)sc1-c1cnc(NC(C)(C)C)cc1C(F)(F)F` [Example 339, 5-[6-(tert-Butylamino)-4-(trifluoromethyl)-3-pyridyl]-N-(2-hydroxy-1,1-dimethyl-ethyl)-4-[(2S)-2-methylpyrrolidine-1-carbonyl]thiazole-2-carboxamide] gave a Kd [1] of 0.00097 µM, an inhibition at 3 µM (full-length human RORγt) of 109% and an IC50 (full-length human RORγt; [3]) of 0.0029 µM.

`CC[C@H](Nc1cc(C(F)F)c(-c2sc(C(=O)N[C@@H]3CC[C@H]3O)nc2C(=O)N2CCC[C@@H]2C)cn1)C(F)(F)F` (relative stereo) [Example 376, 5-(4-(Difluoromethyl)-6-(((S)-1,1,1-trifluorobutan-2-yl)amino)pyridin-3-yl)-N-((1R*,2R*)-2-hydroxycyclobutyl)-4-((S)-2-methylpyrrolidine-1-carbonyl)thiazole-2-carboxamide] showed a Kd [1] of 0.0038 µM, an inhibition at 3 µM (full-length human RORγt) of 101% and an IC50 (full-length human RORγt; [3]) of 0.06 µM.

For `CC[C@H](Nc1cc(C(F)F)c(-c2sc(C(=O)N[C@H]3C[C@H](O)C3)nc2C(=O)N2C3CCC2CC3)cn1)C(F)(F)F` [Example 222, 4-((1s,4s)-7-Azabicyclo[2.2.1]heptane-7-carbonyl)-5-(4-(difluoromethyl)-6-(((1S)-1-(trifluoromethyl)propyl)amino)-3-pyridyl)-N-((1r,3S)-3-hydroxycyclobutyl)thiazole-2-carboxamide], the Kd [1] was 0.01 µM, the “RORγt … % inhibition (value marked *)” value (full-length human RORγt; Conditions B or C) was 113* % and the IC50 (full-length human RORγt; [2]) was 0.012 µM.

For `C[C@H]1CCCN1C(=O)c1nc(C(=O)N[C@H]2C[C@H](S(C)(=O)=O)C2)sc1-c1cnc(NC2CCCC2)cc1C(F)F` [Example 72, 5-(6-(Cyclopentylamino)-4-(difluoromethyl)pyridin-3-yl)-4-((S)-2-methylpyrrolidine-1-carbonyl)-N-((1r,3r)-3-(methylsulfonyl)cyclobutyl)thiazole-2-carboxamide], the Kd [1] was 0.035 µM, the “RORγt … % inhibition (value marked *)” value (full-length human RORγt; Conditions B or C) was 104* % and the IC50 (full-length human RORγt; [2]) was 0.089 µM.

`CC[C@H](Nc1cc(C(F)F)c(-c2sc(C(=O)NC3CCS(=O)(=O)CC3)nc2C(=O)N2CC(F)(F)C[C@@H]2C)cn1)C(F)(F)F` [Example 426, 4-[(2S)-4,4-Difluoro-2-methyl-pyrrolidine-1-carbonyl]-5-[4-(difluoromethyl)-6-[[(1S)-1-(trifluoromethyl)propyl]amino]-3-pyridyl]-N-(1,1-dioxothian-4-yl)thiazole-2-carboxamide] gave a Kd [1] of 0.00037 µM, an inhibition at 3 µM (full-length human RORγt) of 96% and an IC50 (full-length human RORγt; [3]) of 0.079 µM.

Work on `C[C@H]1CCCN1C(=O)c1nc(C(=O)N[C@@H]2COC[C@H]2O)sc1-c1cnc(NC(C)(C)C)cc1C(F)F` [Example 402, 5-[6-(tert-Butylamino)-4-(difluoromethyl)-3-pyridyl]-N-[(3R,4S)-4-hydroxytetrahydrofuran-3-yl]-4-[(2S)-2-methylpyrrolidine-1-carbonyl]thiazole-2-carboxamide] yielded a Kd [1] of 0.0058 µM, an inhibition at 3 µM (full-length human RORγt) of 99% and an IC50 (full-length human RORγt; [3]) of 0.037 µM.

`C[C@H](Nc1cc(C(F)F)c(-c2sc(C(=O)N[C@H]3CC[C@@H]3O)nc2C(=O)N2C3CCC2CC3)cn1)C(F)(F)F` (relative stereo) [Example 292, 4-((1s,4s)-7-Azabicyclo[2.2.1]heptane-7-carbonyl)-5-(4-(difluoromethyl)-6-(((S)-1,1,1-trifluoropropan-2-yl)amino)pyridin-3-yl)-N-((1S*,2S*)-2-hydroxycyclobutyl)thiazole-2-carboxamide] gave a Kd [1] of 0.0061 µM, an inhibition at 3 µM (full-length human RORγt) of 106% and an IC50 (full-length human RORγt; [3]) of 0.04 µM.

Work on `C[C@H]1CCCN1C(=O)c1nc(C(=O)NCC(C)(C)O)sc1-c1ccnc(NC2CCCCC2)c1C#N` [Comparator Example 1, (S)-5-(3-Cyano-2-(cyclohexylamino)pyridin-4-yl)-N-(2-hydroxy-2-methylpropyl)-4-(2-methylpyrrolidine-1-carbonyl)thiazole-2-carboxamide, reference compound] yielded a Kd [1] of 3 µM and an IC50 (full-length human RORγt; HEK293T cells, read-out: RORγt (FL) Reporter Assay B or C, IC50) greater than 6 µM.
